According to publication PMC7696940, “Effects of Rationally Designed Physico-Chemical Variants of the Peptide PuroA on Biocidal Activity towards Bacterial and Mammalian Cells” (International Journal of Molecular Sciences, 2020):
Where no end group is shown, it is not given here.

Key:
E. coli ATCC25922 = assay type: cell-based, Escherichia coli; settings: MHB; for MIC E. coli, No NaCl: 0 mM NaCl; for MIC E. coli, No NaCl / MIC E. coli, With 50mM NaCl / MIC E. coli, With 100mM NaCl / MIC E. coli, With 150mM NaCl: triplicate, mode; for MIC E. coli ATCC25922: 37 °C overnight, A595, mode of three independent experiments
Protocol: (§1) The activity of peptides was determined against the Gram-positive Staphylococcus aureus (ATCC 25923), and the Gram-negative Escherichia coli (ATCC 25922) and Pseudomonas aeruginosa (ATCC 9027) bacteria. Selected peptides were also tested against two clinical isolates of methicillin-resistant Staphylococcus aureus (MRSA), M173525 and M180920, kindly provided by Dr P. B. Ward (Microbiology Department, Austin and Repatriation Medical Centre, Heidelberg West, Victoria, Australia). The Minimum inhibitory concentration (MIC) of peptides was determined by the microtitre broth dilution method, as described in Phillips et al.. Briefly, bacteria were grown in Mueller-Hinton Broth (MHB) at 37 °C overnight with shaking (200 rpm). The cultures were adjusted to 0.5 McFarland turbidity standard (approximately 1 × 10^8 colony forming units (CFU)/mL), then diluted 1:100 in MHB (1 × 10^6 CFU/mL). A total of 75 μL of these suspensions were mixed with 25 μL of peptide solutions (final concentrations 250 to 0.5 μg/mL) and the microtitre plates incubated overnight at 37 °C. Positive growth controls (inoculum and MHB, with no peptide) and sterility controls (0.01% glacial acetic) were also included. Post-incubations, the absorbance of cultures at 595 nm was measured using a microplate reader (POLARstar Omega, Germany). […] To evaluate salt sensitivity of peptides up to physiological levels (150 mM NaCl), overnight cultures of S. aureus and E. coli adjusted to 0.5 McFarland turbidity standard were diluted 1:100 in MHB containing 0, 50, 100 or 150 mM NaCl, and the MICs of peptides determined as above. All tests were conducted in triplicate. The results are shown as the mode of values obtained.

S. aureus ATCC25923 = assay type: cell-based, Staphylococcus aureus; settings: MHB; for MIC S. aureus, No NaCl: 0 mM NaCl; for MIC S. aureus, No NaCl / MIC S. aureus, With 50mM NaCl / MIC S. aureus, With 100mM NaCl / MIC S. aureus, With 150mM NaCl: triplicate, mode; for MIC S. aureus ATCC25923: 37 °C overnight, A595, mode of three independent experiments
Protocol: as §1

P. aeruginosa ATCC9027 = assay type: cell-based, Pseudomonas aeruginosa; settings: MHB, 37 °C overnight, A595; mode of three independent experiments
Protocol: as §1

C. albicans FRR 5580 = assay type: cell-based, Candida albicans; settings: PDB, overnight; mode of three independent experiments
Protocol: The assay was carried out as per Alfred et al.. Candida albicans (FRR 5580) was grown in potato dextrose broth (PDB; Difco-BD, Bergen County, NJ, USA) overnight at 30 °C with shaking (200 rpm) until exponential phase, then adjusted to 0.5 McFarland turbidity standard (approximately 1 × 10^6 cells/mL) and diluted 1:200 with PDB to 0.5 − 2 × 10^3 cells/mL. Peptides in 25 μL volumes were mixed with 75 μL of the yeast suspensions. The controls were included as above. The plates were incubated overnight and absorbance was recorded. All the tests were conducted in triplicate.

E. coli and S. aureus = test: Salt tolerance (MICs under 0-150 mM NaCl, summary); assay type: cell-based, Escherichia coli; Staphylococcus aureus; design: key: Up to 50 mM: no effects on antibacterial activity up to 50 mM NaCl but increase in the MICs for E. coli and S. aureus at 100 mM NaCl; Intolerant: not resistant to salt effects even at 50 mM NaCl; Up to 150 mM: no effects on antibacterial activity up to 150 mM NaCl; settings: MICs for E. coli and S. aureus in MHB with 0, 50, 100 or 150 mM NaCl
Protocol: as §1

[1] = tested on: porcine trypsin and proteinase K; test: Proteases stability assay; assay type: in vitro ADME, porcine; Tritirachium album; settings: 1000 µg peptide with 50 µg protease (20:1 w/w), porcine trypsin or proteinase K, PBS pH 7.4, 37 °C, 3 h; read-out activity of supernatant on E. coli and S. aureus; triplicate
Protocol: The effect of two well-studied proteases, porcine trypsin and proteinase K from Tritirachium album, on the activity of peptides was investigated as per Carmona et al.. Briefly, 1000 µg of a peptide was incubated with 50 µg of a protease (20:1 w/w) at 37 °C for 3 h in phosphate buffered saline PBS (pH 7.4). The enzyme activity was then terminated by heating (70 °C, 5 min) and the samples centrifuged at 12,000× g. The activity of the supernatant on E. coli and S. aureus was tested as above, in triplicate.

NIH-3T3 cells = test: Cytotoxicity, MTT assay; assay type: cell-based, mouse; settings: 24 h, peptide up to 250 µg/mL, concentration causing 50% cell growth inhibition, mean of triplicate assays
Protocol: (§2) Cytotoxicity to human cervical carcinoma HeLa cells and mouse fibroblastic NIH-3T3 cells was determined using the MTT assay as per Scudiero et al. with minor modifications. The cells were maintained in Dulbecco’s Modified Eagle Medium (DMEM) with 10% foetal bovine serum (FBS) and 1% penicillin G in a humidified incubator (Heraeus Hera Cell incubator) at 37 °C with 5% CO2. They were seeded in 96-well microtiter plates at 1 × 10^4 cells/well and allowed to adhere for 24 h in the incubator. The medium was removed, and adherent cells were washed with PBS. Fresh media containing serially diluted peptides in PBS (final concentrations 4 to 250 µg/mL) were added and the cells incubated for 24 h. Cells without peptides were used as negative controls. Following incubations, the medium was removed, and adherent cells were washed with PBS. 150 µL of MTT (diluted to 0.33 mg/mL in DMEM) and the plates incubated for 3 h. The precipitated formazan was dissolved in 100 µL of DMSO and its absorbance measured at 570 nm. Cell viability was determined as: (OD570 nm peptide treated cells/(OD570 nm untreated cells) × 100. Positive cytotoxicity was defined as peptide concentration that causes 50% growth inhibition in a cell line (IC50). All tests were carried out in triplicate.

HeLa cells = assay type: cell-based, human; settings: MTT, 24 h, peptide up to 250 µg/mL; concentration causing 50% cell growth inhibition; mean of triplicate assays
Protocol: as §2

[2] = tested on: pBlueScript SK+ plasmid DNA; test: In vitro DNA-binding assay (gel retardation); settings: 100 ng pBlueScript SK+, peptide 8-500 µg/mL, 1 h room temperature, 1% agarose
Protocol: The ability of peptides to bind to purified DNA (indicative of in vivo DNA binding potential) was tested by the modified gel retardation assay developed by Alfred et al.. The DNA of pBlueScript SK+ (100 ng) was incubated with peptides (to final concentrations of 8, 16, 32, 64, 125, 250 or 500 µg/mL) in 15 µL volumes made with sterile MilliQ water, the held at room temperature for 1h. Loading dye was added to each sample and the samples electrophoresed on 1% agarose gels. The gels were then immersed in ethidium bromide ([…]) then visualized and imaged

Substance	MIC E. coli, No NaCl (E. coli ATCC25922) [µg/mL]	MIC E. coli, With 50mM NaCl (E. coli ATCC25922) [µg/mL]	MIC E. coli, With 100mM NaCl (E. coli ATCC25922) [µg/mL]	MIC E. coli, With 150mM NaCl (E. coli ATCC25922) [µg/mL]	MIC E. coli ATCC25922 (E. coli ATCC25922) [µg/mL]	MIC S. aureus, No NaCl (S. aureus ATCC25923) [µg/mL]	MIC S. aureus, With 50mM NaCl (S. aureus ATCC25923) [µg/mL]	MIC S. aureus, With 100mM NaCl (S. aureus ATCC25923) [µg/mL]	MIC S. aureus, With 150mM NaCl (S. aureus ATCC25923) [µg/mL]	MIC S. aureus ATCC25923 (S. aureus ATCC25923) [µg/mL]	MIC P. aeruginosa ATCC9027 (P. aeruginosa ATCC9027) [µg/mL]	MIC C. albicans FRR 5580 (C. albicans FRR 5580) [µg/mL]	Salt Tolerance (E. coli and S. aureus)	Protease Stability [1]	IC50 NIH-3T3 (NIH-3T3 cells) [µg/mL]	IC50 HeLa (HeLa cells) [µg/mL]	Binding to DNA in vitro (concentration inhibiting plasmid migration) [2] [µg/mL]
RWWKWW-NH2 [Peptide R6]	32	64	250	> 250	32	16	32	250	> 250	16	32	64	Intolerant	Unstable	250	>250	–
RWWKWWK-NH2 [Peptide R7]	8	32	250	> 250	8	16	32	250	> 250	16	32	64	Intolerant	Unstable	250	>250	–
WRWWKWW-NH2 [dW7, diastereomeric counterpart of W7]	8	8	8	8	8	8	8	8	8	8	16	64	Up to 150 mM	–	>250	125	≥ 32
WWRWWKWW-NH2 [dWW, diastereomeric counterpart of WW]	8	8	8	8	8	8	8	8	8	8	32	64	Up to 150 mM	–	250	125	–
